In paper PMC8921064 (Archives of Toxicology, 2022):

Legend:
[1] = tested on: Salmonella typhimurium TA100; test: Reverse mutation assay (Ames test), TA100
[2] = tested on: Chinese hamster bone marrow cells; design: method as in Bayer [1978]; conditions: in vivo exposure; ref Bayer [1978]; cited from earlier work
[3] = Human liver microsomal incubation, metabolite formation quantified by UPLC; conditions: human, microsomes, pH 7.4
[4] = tested on: human liver microsomes (HLM); test: as above; conditions: HLM, substrate Phenanthrene
mouse skin = tested on: mouse skin; design: method as in Buening et al. [1979]; LaVoie et al. [1981]; conditions: mouse skin painting; ref Buening et al. [1979]; LaVoie et al. [1981]; cited from earlier work
S. typhimurium TA98 = conditions: ref Bucker et al. [1979], Wood et al. [1979]; cited from earlier work
[5] = tested on: rat liver microsomes (RLM); test: Rat liver microsomal incubation, metabolite formation quantified by UPLC; conditions: RLM, substrate Phenanthrene
[6] = as above; conditions: Sprague-Dawley, rat, microsomes, pH 7.4
[7] = tested on: Salmonella typhimurium TA98; test: Reverse mutation assay (Ames test), TA98
S. typhimurium TA100 = conditions: ref Bucker et al. [1979], Wood et al. [1979]; cited from earlier work

c1ccc2c(c1)ccc1ccccc12 [Phenanthrene]
Increase in the number of revertants compared to the concurrent solvent control ([1]; TA100, presence of 5% S9-mix, 10–100 µg): No increases in the number of revertants were observed
Mutagenicity (conclusion) ([1]; TA100, positive if more than twofold over control): tested negative for mutagenicity
DNA adducts [2]: no phenanthrene DNA adducts could be detected
microsomal CLint [3]: 24.2 µL/min/mg
Vmax, formation of 1,2-Dihydro-phenanthrene-diol RT = 3.57 min [4]: 152.5 ± 14.4 pmol/min/mg microsomal protein
Vmax, formation of 1-Phenanthrol RT = 6.31 min [4]: 125.2 ± 5.4 pmol/min/mg microsomal protein
Vmax, formation of 3,4-Dihydro-phenanthrene-diol RT = 2.13 min [4]: 61.5 ± 6.3 pmol/min/mg microsomal protein
Vmax, formation of 3,4-Dihydro-phenanthrene-diol RT = 2.24 min [4]: 6.0 ± 0.3 pmol/min/mg microsomal protein
Vmax, formation of 4-Phenanthrol RT = 6.55 min [4]: 18.0 ± 3.9 pmol/min/mg microsomal protein
Vmax, formation of 9,10-Dihydro-phenanthene-diol RT = 3.38 min [4]: 287.8 ± 17.1 pmol/min/mg microsomal protein
Tumor-initiating activity (mouse skin): neither phenanthrene nor its monomethylated analogs
Mutagenicity (S. typhimurium TA98): Neither phenanthrene nor its dihydrodiol metabolites were found to be mutagenic
Vmax, formation of 1,2-Dihydro-phenanthrene-diol RT = 3.57 min [5]: 79.3 ± 6.5 pmol/min/mg microsomal protein
Vmax, formation of 1-Phenanthrol RT = 6.31 min [5]: 123.9 ± 19.2 pmol/min/mg microsomal protein
Vmax, formation of 3,4-Dihydro-phenanthrene-diol RT = 2.13 min [5]: 10.3 ± 1.8 pmol/min/mg microsomal protein
Vmax, formation of 3-Phenanthrol RT = 6.02 min [5]: 21.3 ± 2.0 pmol/min/mg microsomal protein
Vmax, formation of 4-Phenanthrol RT = 6.55 min [5]: 24.5 ± 5.5 pmol/min/mg microsomal protein
Vmax, formation of 9,10-Dihydro-phenanthene-diol RT = 3.28 min [5]: 9.8 ± 0.6 pmol/min/mg microsomal protein
Vmax, formation of 9,10-Dihydro-phenanthene-diol RT = 3.38 min [5]: 529.2 ± 43.2 pmol/min/mg microsomal protein
microsomal CLint [6]: 7.3 µL/min/mg
Increase in the number of revertants compared to the concurrent solvent control ([7]; TA98, presence of 5% S9-mix, 10–100 µg): No increases in the number of revertants were observed
Mutagenicity (conclusion) ([7]; TA98, positive if more than threefold over control): tested negative for mutagenicity
Mutagenicity (S. typhimurium TA100): Neither phenanthrene nor its dihydrodiol metabolites were found to be mutagenic
